Data on five compounds can be found in US11491245B2, “Gadolinium chelate compounds for use in magnetic resonance imaging” (BAYER PHARMA AKTIENGESELLSCHAFT, priority 2015, dated 2022).

Common to all, as to type: physicochemical
The nature of data set [1]: Chemical stability (autoclaving at 121° C.). The conditions noted are these: 5 mmol Gd/L in 10 mM Tris-HCl buffer, pH 7.4, 121° C. for 20 min.
A short description of data set [2]: Relaxivity measurements at 3.0 T. The settings on record: 37° C., normalized to Gd, average ± standard deviation. As for the experimental part:
Relaxivity measurements at 3.0 T were performed with a whole body 3.0 T MRI Scanner (Philips Intera, Philips Healthcare, Hamburg, Germany) using a knee-coil (SENSE-Knee-8, Philips Healthcare, Hamburg, Germany). The sample tubes (CryoTubetm Vials, Thermo Scientific 1.8 mL, Roskilde, Denmark) were positioned in 3 rows of 4 and 5 tubes in a plastic holder in a box filled with water. The temperature was adjusted to 37° C. For the MRI sequence, the shortest possible echo-time (TE) with 7.46 milliseconds was used. The inversion times were chosen to optimize the sequence to measure T1 values corresponding to the estimated T1 range of all relaxation times of contrast media containing solutions. The following inversion times (TIs) were applied: 50, 100, 150, 200, 300, 500, 700, 1000, 1400, 2100, 3200, and 4500 milliseconds. The sequence was run with a constant relaxation delay of 3.4 seconds after the registration of the last echo (variable TR in the range from 3450 to 7900 milliseconds). For details of the fit procedure, see Rohrer et. al. (Invest. Radiol. 2005; 40, 11: 715-724). The experimental matrix of the phantom measurement was 320×320.
The relaxivities were evaluated using three different concentrations of each compound (3 concentrations between 0.05 and 2 mM).
The T1 relaxation times of the Example compounds 1-6 were measured in water and human plasma. Human plasma preparation: For each experiment fresh blood was taken from a volunteer using 10 mL citrate-tubes (Sarstedt S-Monovette 02.1067.001, 10 mL, Citrate). The 10 mL citrate-tubes were carefully inverted 10 times to mix blood and anticoagulant and centrifuged for 15 minutes at 1811 g at room temperature (Eppendorf, Centrifuge 5810R).
The relaxivities ri (where i=1, 2) were calculated on the basis of the measured relaxation rates Ri in water and plasma: Ri=Ri(0)+ri[CGd], where Ri(0) represent the relaxation rate of the respective solvent and CGd the concentration of the compound normalized to the Gadolinium (Table 2).

The nature of data set [3]: Relaxivity measurements at 1.41 T. The conditions noted are these: 1.41 T, 37° C., normalized to Gd; for r1 FBS: fetal bovine serum. As for the experimental part:
Relaxivity measurements at 1.41 T were performed using a MiniSpec mq60 spectrometer (Bruker Analytik, Karlsruhe, Germany) operating at a resonance frequency of 60 MHz and a temperature of 37° C. The T1 relaxation times were determined using the standard inversion recovery (IR) method with a fixed relaxation delay of at least 5×T1. The variable inversion time (TI) was calculated automatically by the standard software of the MiniSpec mq60 (8 steps). The T2 measurements were done by using a Carr-Purcell-Meiboom-Gill (CPMG) pulse sequence, applying a relaxation delay of at least 5×T1.
Each relaxivity measurement was performed using three different Gd concentrations (3 concentrations between 0.05 and 2 mM). The T1 and T2 relaxation times of the example compounds 1-10 were measured in different media for example in water, fetal bovine serum (FBS, Sigma, F7524) and human plasma.
Human plasma preparation: For each experiment fresh blood was taken from a volunteer using 10 mL citrate-tubes (Sarstedt S-Monovette 02.1067.001, 10 mL, Citrate). The 10 mL citrate-tubes were carefully inverted 10 times to mix blood and anticoagulant and centrifuged for 15 minutes at 1811 g at room temperature (Eppendorf, Centrifuge 5810R).
The relaxivities ri (where i=1, 2) were calculated on the basis of the measured relaxation rates Ri in water and plasma: Ri=Ri(0)+ri[CGd], where Ri(0) represent the relaxation rate of the respective solvent and CGd the concentration of the compound normalized to the Gadolinium. The Gadolinium concentrations of the investigated solutions were verified by Inductively Coupled Plasma Mass Spectroscopy (ICP-MS Agilent 7500a, Waldbronn, Germany).

Another data set in a line: Water solubility. The conditions noted are these: 10 mM Tris-HCl buffer, 20° C. As for the experimental part:
The water solubility of the compounds was determined at room temperature (20° C.) in 0.5 mL buffer solution (10 mM Tris-HCl) in the microcentrifuge tubes (Eppendorf, 2.0 mL safe-lock caps). The solid compound was added stepwise to the buffer solution. The suspension was mixed using a shaker (Heidolph Reax 2000) and treated 5 min in an ultrasound bath (Bandelin, Sonorex Super RK255H) The suspension was stored at room temperature (20° C.) over night and final Gadolinium concentration was determined by inductively coupled plasma mass spectrometry (ICP-MS).

As to `CC(C(=O)NCC(=O)NCC(CNC(=O)CNC(=O)C(C)N1CCN(CC(=O)[O-])CCN(CC(=O)[O-])CCN(CC(=O)[O-])CC1)C(=O)NCCN(CCNC(=O)C(CNC(=O)CNC(=O)C(C)N1CCN(CC(=O)[O-])CCN(CC(=O)[O-])CCN(CC(=O)[O-])CC1)CNC(=O)CNC(=O)C(C)N1CCN(CC(=O)[O-])CCN(CC(=O)[O-])CCN(CC(=O)[O-])CC1)C(=O)CNC(=O)C(C)N1CCN(CC(=O)[O-])CCN(CC(=O)[O-])CCN(CC(=O)[O-])CC1)N1CCN(CC(=O)[O-])CCN(CC(=O)[O-])CCN(CC(=O)[O-])CC1.[Gd+3].[Gd+3].[Gd+3].[Gd+3].[Gd+3]` (stereo not drawn) [Example 1], the “appearance of the solution after autoclaving” value (“appearance of the solution” below) in data set [1] is “still clear and colorless”. In addition, in data set [2], the r1 human plasma amounted to 10.8 ± 0.1 L/mmol/s and the r1 water worked out at 9.5 ± 0.2 L/mmol/s. Moreover, in data set [3], the “r1 FBS” value is 13.2 L/mmol/s, the r1 human plasma came to 13.0 L/mmol/s and the r1 water was found to be 11.1 L/mmol/s. Moreover, the Solubility in “Water solubility” is listed as more than 1200 mmol Gd/L.
`CC(C(=O)NCC(=O)NCC(CNC(=O)CNC(=O)C(C)N1CCN(CC(=O)[O-])CCN(CC(=O)[O-])CCN(CC(=O)[O-])CC1)C(=O)NCCN(CCNC(=O)C(CNC(=O)CNC(=O)C(C)N1CCN(CC(=O)[O-])CCN(CC(=O)[O-])CCN(CC(=O)[O-])CC1)CNC(=O)CNC(=O)C(C)N1CCN(CC(=O)[O-])CCN(CC(=O)[O-])CCN(CC(=O)[O-])CC1)C(=O)C(CNC(=O)CNC(=O)C(C)N1CCN(CC(=O)[O-])CCN(CC(=O)[O-])CCN(CC(=O)[O-])CC1)CNC(=O)CNC(=O)C(C)N1CCN(CC(=O)[O-])CCN(CC(=O)[O-])CCN(CC(=O)[O-])CC1)N1CCN(CC(=O)[O-])CCN(CC(=O)[O-])CCN(CC(=O)[O-])CC1.[Gd+3].[Gd+3].[Gd+3].[Gd+3].[Gd+3].[Gd+3]` (stereo not drawn) [Example 2]: the “appearance of the solution” value in data set [1] was “still clear and colorless”. Moreover, in data set [2], the r1 human plasma came out at 11.4 ± 0.1 L/mmol/s and the r1 water amounted to 9.2 ± 0.3 L/mmol/s. Also, in data set [3], the “r1 FBS” value was 13.4 L/mmol/s, the r1 human plasma stood at 13.9 L/mmol/s and the r1 water was 12.1 L/mmol/s. In addition, in “Water solubility”, the Solubility is given as more than 1200 mmol Gd/L.
With `CC(C(=O)NCC(=O)N(CCNC(=O)C1CN(C(=O)CNC(=O)C(C)N2CCN(CC(=O)[O-])CCN(CC(=O)[O-])CCN(CC(=O)[O-])CC2)CCN(C(=O)CNC(=O)C(C)N2CCN(CC(=O)[O-])CCN(CC(=O)[O-])CCN(CC(=O)[O-])CC2)C1)CCNC(=O)C1CN(C(=O)CNC(=O)C(C)N2CCN(CC(=O)[O-])CCN(CC(=O)[O-])CCN(CC(=O)[O-])CC2)CCN(C(=O)CNC(=O)C(C)N2CCN(CC(=O)[O-])CCN(CC(=O)[O-])CCN(CC(=O)[O-])CC2)C1)N1CCN(CC(=O)[O-])CCN(CC(=O)[O-])CCN(CC(=O)[O-])CC1.[Gd+3].[Gd+3].[Gd+3].[Gd+3].[Gd+3]` (stereo not drawn) [Example 4, Pentagadolinium [4-(1-{[2-(bis{2-[({1,4-bis[({2-[4,7,10-tris(carboxylatomethyl)-1,4,7,10-tetraazacyclododecan-1-yl]propanoyl}amino)acetyl]-1,4-diazepan-6-yl}carbonyl)-amino]ethyl}amino)-2-oxoethyl]amino}-1-oxopropan-2-yl)-7,10-bis(carboxylatomethyl)-1,4,7,10-tetraazacyclododecan-1-yl]acetate], in data set [2], the r1 human plasma came out at 11.8 ± 0.3 L/mmol/s and the r1 water came out at 10.1 ± 0.2 L/mmol/s. Also, in data set [3], the “r1 FBS” value was 13.3 L/mmol/s, the r1 human plasma was 13.2 L/mmol/s and the r1 water was found to be 11.5 L/mmol/s. In the data set “Water solubility”, this compound came in with a Solubility of more than 1200 mmol Gd/L.
For the compound “Hexagadolinium 2,2′,2″,2′″,2″″,2′″″,2″″″,2′″″″,2″″″″,2′″″″″,2″″″″″,2′″″″″″,2″″″″″″, 2′″″″″″″,2″″″″″″″, 2′″″″″″″″,2″″″″″″″″,2′″″″″″″″″-(1,4,7-triazonane-1,4,7-triyltris{carbonyl- 1,4-diazepane-6,1,4-triylbis[(2-oxoethane-2,1-diyl)imino(1-oxopropane-1,2-diyl)-1,4,7,10-tetraazacyclododecane-10,1,4,7-tetrayl]})octadecaacetate [Example 6]”, the “appearance of the solution” value in data set [1] is “still clear and colorless”. In data set [2], this compound displayed a r1 human plasma of 12.8 ± 0.3 L/mmol/s and a r1 water of 11.3 ± 0.4 L/mmol/s. Also, in data set [3], the “r1 FBS” value was determined as 14.2 L/mmol/s, the r1 human plasma came to 14.6 L/mmol/s and the r1 water was determined as 13.4 L/mmol/s. Moreover, in “Water solubility”, the Solubility was more than 1100 mmol Gd/L.
For “Hexagadolinium 2,2′,2″,2′″,2″″,2′″″,2″″″,2′″″″,2″″″″,2′″″″″,2″″″″″,2′″″″″″,2″″″″″″, 2′″″″″″″,2″″″″″″″, 2′″″″″″″″,2″″″″″″″″,2′″″″″″″″″-{ethane-1,2-diylcarbamoyl-1,4-diazepane-6,1,4-triyltris[(2-oxoethane-2,1-diyl)imino(1-oxopropane-1,2-diyl)-1,4,7,10-tetraazacyclododecane-10,1,4,7-tetrayl]}octadecaacetate [Example 5]”, in data set [2], the r1 human plasma stood at 12.4 ± 0.2 L/mmol/s and the r1 water stood at 10.8 ± 0.3 L/mmol/s. In data set [3], the “r1 FBS” value is 14.6 L/mmol/s, the r1 human plasma was found to be 14.3 L/mmol/s and the r1 water came to 13.0 L/mmol/s. In “Water solubility”, this compound gave a Solubility of more than 1100 mmol Gd/L.
